For one data set, the target named is T1, Na+/K+-ATPase (Bos taurus, UniProt Q08DA1).
T1 construct: host or cells: MDBK (Madin-Darby bovine kidney) cells
Nature of the data set: Na+/K+-ATPase inhibition assay (86Rb+ uptake) in MDBK cells. The class given is cell-based, bovine. The note with it: 0.2-200 ng/well. As to the method: The assay in MDBK cells has been described previously (see Benaksas at al., above). The assay is described briefly here. Madin-Darby bovine kidney (MDBK) cells (ATCC:CCL22) were maintained in Dulbecco's Modified Eagle's Medium (DMEM) with 5% Fetal Bovine Serum and 5% Bovine Calf Serum in a 5% CO2/95% humidified air atmosphere at 37° C. and split (1:2) once per week.
One day before the assay, cells were plated in a 96-well plate at a density of 5×10^5 cells/well in DMEM with serum. On the day of the assay the medium was removed and the cells washed with phosphate buffered saline (PBS) before addition of 100 μL of assay media (122 mM NaCl, 1.8 mM CaCl2, 0.8 mM MgSO4, 24 mM NaHCO3, 1 mM sodium pyruvate, 25 mM glucose, 14 mM glycylglycine, 0.2% phenol red, 8 mM Na2HPO4 1.15 mM KH2PO4, pH 8.0) and 100 μl of sample. The plate was preincubated for 30 minutes at 37° C., then chilled on ice for 10 minutes. To each well was added 0.15 μCi ^86RbCl (Amersham) in 10 μL of assay media. The plate was then incubated at 37° C. for 10 minutes. A portion (100 μL) of the supernatant was counted with 0.5 mL of scintillation cocktail in a liquid scintillation counter. As a control for Na^+/K^+-ATPase inhibition, a dose response curve for ouabain in the range of 10^−5-10^−8 M was obtained. Intra-experiment coefficient of variation for ouabain was 3-15%. […]

A short description of data set [1]: Chemical characteristics / stability of the natriuretic LLUs. The class given is physicochemical.
A further data set concerns conscious rats. Description: In vivo bioassay for natriuresis in conscious rats. On the set-up: species or system rat. The note with it: for Natriuretic Response (R): R > 0.67 = active. As for the experimental part:
The assay for natriuresis in conscious rats has been described previously (see Benaksas et al., above). The assay is briefly reiterated here. Female Sprague-Dawley (Harlan) rats (200-250 g) were cannulated in the femoral artery and vein for monitoring of mean arterial pressure (MAP) and Infusion of saline and samples, respectively. The bladder was catheterized for collection of urine in ten-minute periods. Furosemide (0.4 mg/kg bwt; 1 mg/mL in 0.17% saline) was infused as a positive control at the beginning of the sixth ten-minute period. The sample was infused at the beginning of the seventeenth ten-minute period. Urine was collected for another 150 minutes. The volume of the urine was determined gravimetrically and the Na^+ and K^+ concentrations determined with a Beckman E2A electrolyte analyzer.
The natriuretic response of a sample was normalized to the dose of furosemide infused. The not sodium excretion for the Infusion of furosemide or sample was calculated as follows. The median sodium excretion value (μmoles Na^+/10 minute period) for the five periods before infusion of furosemide or sample was used to establish a baseline value for the calculation of ΔUNaV (=μmoles Na^+ period—baseline μmoles Na^+) for administration of either furosemide or sample respectively. The sum of ΔUNaV for the four periods following infusion of furosemide was the net sodium excreted for furosemide, defined as FR. The sum of ΔUNaV for the fifteen periods following infusion of the sample was the net sodium excreted for the sample defined as SR. The natriuretic ratio Rn (or normalized natriuretic response) of a sample was calculated by dividing SR by FR (Rn=SR/FR). A sample is considered natriuretically active if the Rn value for that sample was greater than or equal to 0.67 (greater than 99% confidence limits).

Data set [2] relates to tumor cells derived from a spontaneously arising mammary tumor. Nature of the data set: Tumor formation in mice injected with mammary tumor cells. The note with it: 20 mg/kg, 21 days after tumor cell injection, versus untreated tumor-induced control mice. The data set is classed as in vivo.
Description: Four groups of mice are used in the study: (1) control mice in which tumor formation is not induced but treatment with a formulation of γ-tocopherol 75% (weight to weight) and LLU-α 25% (weight to weight) is rendered; (2) control mice in which tumor formation is induced and treatment is not rendered; (3) experimental mice in which tumor formation is induced and treatment with γ-tocopherol 75% (weight to weight) is rendered; and (4) experimental mice in which tumor formation is induced and treatment with a formulation of γ-tocopherol 75% (weight to weight) and LLU-α 25% (weight to weight) is rendered. As a further control, mice in which tumor formation is induced are treated with varying concentrations of α-tocopherol so as to evaluate the relative effectivity of γ-tocopherol and the formulation of γ-tocopherol and LLU-α, as compared to α-tocopherol.
Mice which receive treatment with γ-tocopherol or a formulation of γ-tocopherol and LLU-α, as described above, are given 20 mg/kg of supplement for a period of 2-4 weeks. Tumor cells derived from a spontaneously arising mammary tumor are then injected into the thigh area of the experimental mice to induce tumor formation. Treatment with γ-tocopherol and the formulation of γ-tocopherol and LLU-α is continued according to the protocol above. After 21 days, the mean volume of tumors in the mice is determined and compared.

Where “and” joins values, the source holds several entries; their conditions need not be identical. Equal entries are not always repeated. Entries after “also recorded” stand apart in the source; their conditions may differ.

`Cc1c(C)c2c(c(C)c1O)CCC(C)(CCC(=O)O)O2` (racemic) [Example 12, 2,5,7,8-tetramethyl-2-(β-carboxyethyl)-6-hydroxy chroman] showed a melting point of 173 °C.

Consider `Cc1c(O)cc2c(c1C)OC(C)(CCC(=O)O)CC2` (racemic) [LLU-α, 6-hydroxy-2,7,8-trimethylchroman-2-propanoic acid], for which, at Na+/K+-ATPase, the “Na+/K+-ATPase inhibition” value is “no inhibition”. Also, the “Physical Properties: stability in CDCl3” value in data set [1] (CDCl3) is recorded as “Unstable in”. In data set [1] (dilute base), the “Physical Properties: stability in dilute base” value is “instability; also recorded: Unstable in”. The natriuretic activity entry in the data set with conscious rats (8 μg/kg, further purified on acetic acid/acetonitrile RP-HPLC (seventh step)) is given as “active”. For the same compound, the “kaliuresis (potassium excretion)” value in the data set with conscious rats (after infusion, conscious rat) is given as “no detectable kaliuresis”. The “change in mean arterial pressure” value with conscious rats (infusion, conscious rat) was “Neither LLU-α nor -γ caused a significant Change; also recorded: does not cause a significant change”. Also, the “effect on blood pressure” value in the data set on conscious rats (infusion, conscious rat) was “no effect on blood pressure”. Further, the “natriuresis when infused into the rat” value in the data set on conscious rats (infusion, conscious rat) is recorded as “sustained natriuresis”. Further, the “natriuretic activity at lower or higher doses” value with conscious rats (partially purified (sixth step), doses below or above 4-8 μg/kg) is “no activity”. Also, the “dose range with natriuretic activity” value in the data set on conscious rats (partially purified from silica gel-HPLC (sixth purification step)) lay in the range of 4 to 8 µg/kg. In addition, the natriuretic dose-response curve result in the data set with conscious rats (shape of curve (Table III)) was “narrow and biphasic”. Besides, the “Natriuretic Response (R)” value in the data set on conscious rats (silica gel HPLC fraction 17, dose 0.2 μg, infused in conscious rat) was −0.14; with conscious rats (silica gel HPLC fraction 17, dose 1 μg), 0.27; in the data set with conscious rats (silica gel HPLC fraction 17, dose 2 μg), 1.14 and 0.75; with conscious rats (silica gel HPLC fraction 17, dose 10 μg), 0.26; in the data set with conscious rats (silica gel HPLC fraction 18, dose 22.4 μg), 0.02; with conscious rats (silica gel HPLC fraction 18, dose 56.4 μg), 0.23. In addition, the “Natriuretic Response (R)” value in the data set with conscious rats (silica gel HPLC fraction 19, dose 0.2 μg) is reported as 0.24; in the data set on conscious rats (silica gel HPLC fraction 19, dose 1 μg), 0.93; in the data set on conscious rats (silica gel HPLC fraction 19, dose 10 μg) it was 0.09. The “sodium excretion in the urine in mammals” value with conscious rats (without a corresponding increase in potassium excretion) is recorded as “capable of increasing sodium excretion”.

As for `Cc1c(O)cc2c(c1C)O[C@](C)(CCC[C@H](C)CCC[C@H](C)CCCC(C)C)CC2` [γ-tocopherol], the “mean volume of tumors” value in data set [2] was “less than the mean volume of tumors in the control mice”.

Broadly, the melting point is the temperature, or range, at which the solid turns liquid.

Source of the values: patent US6908943B2, “Use of γ-tocopherol and its oxidative metabolite LLU-α in the treatment of disease” (Loma Linda University Medical Center, priority 1998, dated 2005).
